Assay results published in patent US9895303B2, “Peptide, method and composition for stimulating melanogenesis” (Renorigin Innovation Institute Co., Ltd., priority 2016, dated 2018).

Columns and labels:
Format in all cases: cell-based, murine
B16F10 melanoma cells = test: Visual pigmentation of B16F10 cells and culture medium; conditions: 10-50 μg/ml, 5 days, medium change at day 3
Experimental: B16F10 melanoma cells were treated with 10-50 μg/ml peptide of SEQ ID NO: 1 (“Lf B-17-34”) for 5 days with a medium change at day 3. The cells and medium were recovered in test tubes. Kojic acid is used as negative control in the cellular study due to known inhibitory effects on tyrosinase activity. IBMX is used as positive control in the cellular study due to known elevator of cellular cAMP level, to stimulate melanogenesis.
(§1) B16F10 murine melanoma cells were cultured in phenol red-free DMEM with 10% fetal bovine serum and penicillin/streptomycin (100 IU/50 […]) in a humidified atmosphere containing 5% CO2 in air at 37° C.

B16F10 cells = test: Melanin content assay; conditions: 10-50 μg/ml, 5 days
Experimental: as §1
Melanin contents of cultured B16F10 cells were measured according to the method (Lee et al., J Invest Dermatol 124, 405-411, 2005) with a slight modification. Briefly, B16F10 cells were seeded in 6-well plate (2×10^4 cells/well) and incubated overnight to allow cells to adhere. After treating with various test samples in an incubator for 5 days, washed, trypsinized and counted before pelleting. Melanin per cell was quantified after boiling in 1 M NaOH for 1 hour and melanin content in each sample was read from a calibration curve against synthetic eumelanin at 400 nm and converted to means±SE melanin pg/cell from 3 independent experiments.

Tyrosinase [1] = test: Tyrosinase assay (cell lysate, L-DOPA); conditions: B16F10 cells, 10-50 μg/ml, 5 days
Experimental: as §1
Tyrosinase is the rate limiting enzyme in the melanogenic pathway. Its measurement provides a highly specific and sensitive indication of degree of induction of melanogenesis. Tyrosinase enzyme activity of cultured B16F10 cells were measured according to the method of (Bellei et al., J Biol Chem 285, 7288-7299, 2010) with a slight modification. Briefly, B16F10 cells were seeded in 6-well plate (2×10^4 cells/well) and incubated overnight to allow cells to adhere. After treating with various test samples in an incubator for 5 days, cells were washed with PBS and then harvested using trypsin. At the end point, the cells were solubilized with phosphate buffer (pH 6.8) containing 1% Triton X-100. The cells were then disrupted by freezing and thawing, and the lysates were clarified by centrifugation at 10,000×g for 10 min. After protein quantification and adjustment of protein concentrations with lysis buffer, 100 μl of each lysate (each containing the same amount of protein) were aliquoted into the wells of a 96-well plate, and 100 μl of 5 mM L-DOPA were then added to each well. The absorbance was measured spectrophotometrically at 475 nm following a […] incubation period at 37° C. […]

Tyrosinase [2] = test: DOPA staining; conditions: B16F10 cells, 10-50 μg/ml, 4 days
Experimental: as §1
DOPA staining was also performed to measure tyrosinase enzyme activity. B16F10 cells were seeded in 6-well plate (2×10^4 cells/well) and incubated overnight to allow cells to adhere. After treating with various test samples in an incubator for 4 days, cells were washed with PBS, fixation with 2% paraformaldehyde and washing with PBS a further three times, the cells were incubated with 0.1% DOPA (dissolved in 0.1 M PBS) at 37° C. for 5 hour, and observed using light microscopy (Wang et al., Exp Ther Med 6, 967-972, 2013).

FKCRRWQWRMKKLGAPSI (listed as Bos taurus) [Lf B-17-34]
pigmentation in cells and in medium (B16F10 melanoma cells): hyper pigmentation in cells as in medium to a similar extent | melanin synthesis (melanin content in cells, melanin secretion in medium) (B16F10 cells): significantly increased melanin synthesis in a concentration-dependent manner | tyrosinase activity (Tyrosinase [1]): significantly increased tyrosinase activity | DOPA staining (Tyrosinase [2]): strong DOPA staining
